Measurements reported in patent publication US20240384350A1, “METHODS OF TREATING CANCER WITH KINASE INHIBITORS” (BOARD OF REGENTS, THE UNIVERSITY OF TEXAS SYSTEM, priority 2021, published 2024).
Blank lines part the entries; values can stand above or below the molecule they belong to.

Experiments:
Experiment in all cases: Ba/F3 drug screening, Cell Titer Glo, IC50 Mut/WT
Format in all cases: cell-based
EGFR L833V = biological target: T1, EGFR L833V (Homo sapiens, UniProt P00533, L833V); conditions: Classical-Like, 72 hours
T1 construct: expressed in transfected cells; host or cells: Ba/F3 cells, retroviral pBabe-Puro vector

EGFR G719A L861Q = biological target: T2, EGFR G719A L861Q (Homo sapiens, UniProt P00533, G719A/L861Q)
T2 construct: expressed in transfected cells; host or cells: Ba/F3

EGFR K754E = biological target: T3, EGFR K754E (Homo sapiens, UniProt P00533, K754E); conditions: Classical-Like, 72 hours
T3 construct: expressed in transfected cells; host or cells: Ba/F3 cells, retroviral pBabe-Puro vector
Protocol: (§1) Data represent the ratio of the IC50 value for a given TKI for cells with a classical-like EGFR mutation to the IC50 value for cells with wildtype EGFR.
(§2) Ba/F3 cell generation, drug screening, and IC50 approximations. Ba/F3 cells were obtained as a gift from Dr. Gordon Mills (MD Anderson Cancer Center), and maintained in RPMI (Sigma) containing 10% FBS, 1% penicillin/streptomycin, and 10 ng/ml recombinant mIL-3 (R&D Biosystems). To establish stable Ba/F3 cell lines, Ba/F3 cells were transduced with retroviruses containing mutant EGFR plasmids for 12-24 hours.
(§3) After 48-72 hours of transduction, 2 μg/ml puromycin (Invitrogen) was added to Ba/F3 cell lines in complete RPMI. To select for EGFR positive cell lines, cells were stained with PE-EGFR (Biolegend) and sorted by FACS. After sorting, EGFR positive cells were maintained in RPMI containing 10% FBS, 1% penicillin/streptomycin, and 1 ng/ml EGF to support cell viability. […] Shortly, cells were plated in 384-well plates (Greiner Bio-One) at 2000-3000 cells per well in technical triplicate. Seven different concentrations of TKIs or DMSO vehicle were added to reach a final volume of 40 μL per well. After 72 hours, 11 μL of Cell Titer Glo (Promega) was added to each well. Plates were incubated for a minimum of 10 minutes, and bioluminescence was determined using a FLUOstar OPTIMA plate reader (BMG LABTECH). Raw bioluminescence values were normalized to DMSO control treated cells, and values were plotted in GraphPad Prism. […] Drug screens were performed in technical triplicate on each plate and either duplicate or triplicate biological replicates.

EGFR Ex19del = biological target: T4, EGFR Ex19del (Homo sapiens, UniProt P00533, DEL746-750); conditions: Classical-Like, 72 hours
T4 construct: expressed in transfected cells; host or cells: Ba/F3 cells, retroviral pBabe-Puro vector
Protocol: as §1, §2, §3

EGFR L858R T790M V843I = biological target: T5, EGFR L858R T790M V843I (Homo sapiens, UniProt P00533, L858R/T790M/V843I); conditions: T790M-like-3S, 72 hours
T5 construct: expressed in transfected cells; host or cells: Ba/F3

EGFR E709_T710del insD = biological target: T6, EGFR E709_T710del insD (Homo sapiens, UniProt P00533, DEL709-709/T710D)
T6 construct: expressed in transfected cells; host or cells: Ba/F3

EGFR L858R/L792H = biological target: T7, EGFR L858R/L792H (Homo sapiens, UniProt P00533, L792H/L858R)
T7 construct: expressed in transfected cells; host or cells: Ba/F3

EGFR A763insLQEA = biological target: T8, EGFR A763insLQEA (Homo sapiens, UniProt P00533, INS763LQEA); conditions: Classical-Like, 72 hours
T8 construct: expressed in transfected cells; host or cells: Ba/F3 cells, retroviral pBabe-Puro vector

EGFR G719S = biological target: T9, EGFR G719S (Homo sapiens, UniProt P00533, G719S)
T9 construct: expressed in transfected cells; host or cells: Ba/F3

EGFR L858R/C797S = biological target: T10, EGFR L858R/C797S (Homo sapiens, UniProt P00533, C797S/L858R)
T10 construct: expressed in transfected cells; host or cells: Ba/F3

EGFR D761N = biological target: T11, EGFR D761N (Homo sapiens, UniProt P00533, D761N); conditions: Classical-Like, 72 hours
T11 construct: expressed in transfected cells; host or cells: Ba/F3 cells, retroviral pBabe-Puro vector

EGFR K757R = biological target: T12, EGFR K757R (Homo sapiens, UniProt P00533, K757R)
T12 construct: expressed in transfected cells; host or cells: Ba/F3

EGFR E709K G719S = biological target: T13, EGFR E709K G719S (Homo sapiens, UniProt P00533, E709K/G719S)
T13 construct: expressed in transfected cells; host or cells: Ba/F3

EGFR L718V = biological target: T14, EGFR L718V (Homo sapiens, UniProt P00533, L718V)
T14 construct: expressed in transfected cells; host or cells: Ba/F3

EGFR G719A = biological target: T15, EGFR G719A (Homo sapiens, UniProt P00533, G719A)
T15 construct: expressed in transfected cells; host or cells: Ba/F3
Protocol: (§4) Data represent the ratio of the IC50 value for a given TKI for cells with a PACC EGFR mutation to the IC50 value for cells with wildtype EGFR.
as §2
(§5) After 48-72 hours of transduction, 2 μg/ml puromycin (Invitrogen) was added to Ba/F3 cell lines in complete RPMI. To select for EGFR positive cell lines, cells were stained with PE-EGFR (Biolegend) and sorted by FACS. After sorting, EGFR positive cells were maintained in RPMI containing 10% FBS, 1% penicillin/streptomycin, and 1 ng/ml EGF to support cell viability. Drug screening was performed as previously described^41,42. Shortly, cells were plated in 384-well plates (Greiner Bio-One) at 2000-3000 cells per well in technical triplicate. Seven different concentrations of TKIs or DMSO vehicle were added to reach a final volume of 40 μL per well. After 72 hours, 11 μL of Cell Titer Glo (Promega) was added to each well. Plates were incubated for a minimum of 10 minutes, and bioluminescence was determined using a FLUOstar OPTIMA plate reader (BMG LABTECH). Raw bioluminescence values were normalized to DMSO control treated cells, and values were plotted in GraphPad Prism. […] Drug screens were performed in technical triplicate on each plate and either duplicate or triplicate biological replicates.

EGFR L718Q = biological target: T16, EGFR L718Q (Homo sapiens, UniProt P00533, L718Q)
T16 construct: expressed in transfected cells; host or cells: Ba/F3
Protocol: as §4, §2, §5

EGFR L858R G724S = biological target: T17, EGFR L858R G724S (Homo sapiens, UniProt P00533, G724S/L858R)
T17 construct: expressed in transfected cells; host or cells: Ba/F3 (retroviral transduction, pBabe-Puro based vectors)
Protocol: as §4, §2, §5

EGFR G719A/R776C = biological target: T18, EGFR G719A/R776C (Homo sapiens, UniProt P00533, G719A/R776C)
T18 construct: expressed in transfected cells; host or cells: Ba/F3

EGFR Ex19del/L792H = biological target: T19, EGFR Ex19del/L792H (Homo sapiens, UniProt P00533, DEL746-750/L792H)
T19 construct: expressed in transfected cells; host or cells: Ba/F3
Protocol: as §4, §2, §5

EGFR G724S T790M = biological target: T20, EGFR G724S T790M (Homo sapiens, UniProt P00533, G724S/T790M); conditions: T790M-like-3R, 72 hours
T20 construct: expressed in transfected cells; host or cells: Ba/F3
Protocol: (§6) Data represent the ratio of the IC50 value for a given TKI for cells with a T790M-like-3R EGFR mutation to the IC50 value for cells with wildtype EGFR.
as §2
(§7) After 48-72 hours of transduction, 2 μg/ml puromycin (Invitrogen) was added to Ba/F3 cell lines in complete RPMI. To select for EGFR positive cell lines, cells were stained with PE-EGFR (Biolegend) and sorted by FACS. After sorting, EGFR positive cells were maintained in RPMI containing 10% FBS, 1% penicillin/streptomycin, and 1 ng/ml EGF to support cell viability. […] Shortly, cells were plated in 384-well plates (Greiner Bio-One) at 2000-3000 cells per well in technical triplicate. Seven different concentrations of TKIs or DMSO vehicle were added to reach a final volume of 40 μL per well. After 72 hours, 11 μL of Cell Titer Glo (Promega) was added to each well. Plates were incubated for a minimum of 10 minutes, and bioluminescence was determined using a FLUOstar OPTIMA plate reader (BMG LABTECH). Raw bioluminescence values were normalized to DMSO control treated cells, and values were plotted in GraphPad Prism. […] Drug screens were performed in technical triplicate on each plate and either duplicate or triplicate biological replicates. […] Statistical differences between groups were determined by ANOVA as described in the figure legends.

EGFR S768dupSVD V769M = biological target: T21, EGFR S768dupSVD V769M (Homo sapiens, UniProt P00533, INS768MDS/V769M); conditions: Ex20, 72 hours
T21 construct: expressed in transfected cells; host or cells: Ba/F3 cells, retroviral pBabe-Puro vector (vector made by GeneScript from EGFR S768dupSVD, c.2305G > A)

EGFR E709K = biological target: T22, EGFR E709K (Homo sapiens, UniProt P00533, E709K)
T22 construct: expressed in transfected cells; host or cells: Ba/F3

EGFR L858R T790M L718V = biological target: T23, EGFR L858R T790M L718V (Homo sapiens, UniProt P00533, L718V/L858R/T790M); conditions: T790M-like-3R, 72 hours
T23 construct: expressed in transfected cells; host or cells: Ba/F3
Protocol: as §6, §2, §7

Structure (SMILES): C=CC(=O)N[C@H]1C=C(C)c2c(-c3cnc4ccccc4c3)c3c(N)ncnc3n2C1 [TAS 6417]
ratio of IC50 for cells with mutant EGFR to IC50 for cells with wildtype EGFR (Mut/WT) (EGFR L833V): 0.03111
ratio of the IC50 value for cells with a PACC EGFR mutation to the IC50 value for cells with wildtype EGFR (EGFR G719A L861Q; Ba/F3 cells, EGFR G719A L861Q (PACC), Mut/WT): 0.02387
ratio of IC50 for cells with mutant EGFR to IC50 for cells with wildtype EGFR (Mut/WT) (EGFR K754E): 0.004475
ratio of IC50 for cells with mutant EGFR to IC50 for cells with wildtype EGFR (Mut/WT) (EGFR Ex19del): 0.00149
ratio of IC50 for cells with mutant EGFR to IC50 for cells with wildtype EGFR (Mut/WT) (EGFR L858R T790M V843I): 0.07336
ratio of the IC50 value for cells with a PACC EGFR mutation to the IC50 value for cells with wildtype EGFR (EGFR E709_T710del insD; Ba/F3 cells, EGFR E709_T710del insD (PACC), Mut/WT): 0.3335
ratio of the IC50 value for cells with a PACC EGFR mutation to the IC50 value for cells with wildtype EGFR (EGFR L858R/L792H; Ba/F3 cells, EGFR L858R/L792H (PACC), Mut/WT): 0.004611
ratio of IC50 for cells with mutant EGFR to IC50 for cells with wildtype EGFR (Mut/WT) (EGFR A763insLQEA): 0.005254
ratio of the IC50 value for cells with a PACC EGFR mutation to the IC50 value for cells with wildtype EGFR (EGFR G719S; Ba/F3 cells, EGFR G719S (PACC), Mut/WT): 0.01675
ratio of the IC50 value for cells with a PACC EGFR mutation to the IC50 value for cells with wildtype EGFR (EGFR L858R/C797S; Ba/F3 cells, EGFR L858R/C797S (PACC), Mut/WT): 3.055
ratio of IC50 for cells with mutant EGFR to IC50 for cells with wildtype EGFR (Mut/WT) (EGFR D761N): 0.2474
ratio of the IC50 value for cells with a PACC EGFR mutation to the IC50 value for cells with wildtype EGFR (EGFR K757R; Ba/F3 cells, EGFR K757R (PACC), Mut/WT): 0.4608
ratio of the IC50 value for cells with a PACC EGFR mutation to the IC50 value for cells with wildtype EGFR (EGFR E709K G719S; Ba/F3 cells, EGFR E709K G719S (PACC), Mut/WT): 0.007578
ratio of the IC50 value for cells with a PACC EGFR mutation to the IC50 value for cells with wildtype EGFR (EGFR L718V; Ba/F3 cells, EGFR L718V (PACC), Mut/WT): 0.02378
ratio of the IC50 value for cells with a PACC EGFR mutation to the IC50 value for cells with wildtype EGFR (EGFR G719A; Ba/F3 cells, EGFR G719A (PACC), Mut/WT): 0.01801
ratio of the IC50 value for cells with a PACC EGFR mutation to the IC50 value for cells with wildtype EGFR (EGFR L718Q; Ba/F3 cells, EGFR L718Q (PACC), Mut/WT): 0.02239
ratio of the IC50 value for cells with a PACC EGFR mutation to the IC50 value for cells with wildtype EGFR (EGFR L858R G724S; Ba/F3 cells, EGFR L858R G724S (PACC), Mut/WT): 0.01631
ratio of the IC50 value for cells with a PACC EGFR mutation to the IC50 value for cells with wildtype EGFR (EGFR G719A/R776C; Ba/F3 cells, EGFR G719A/R776C (PACC), Mut/WT): 3.055
ratio of the IC50 value for cells with a PACC EGFR mutation to the IC50 value for cells with wildtype EGFR (EGFR Ex19del/L792H; Ba/F3 cells, EGFR Ex19del/L792H (PACC), Mut/WT): 0.008269
ratio of IC50 for cells with mutant EGFR to IC50 for cells with wildtype EGFR (Mut/WT) (EGFR G724S T790M): 0.1693
ratio of IC50 for cells with mutant EGFR to IC50 for cells with wildtype EGFR (Mut/WT) (EGFR S768dupSVD V769M): 0.02679
ratio of the IC50 value for cells with a PACC EGFR mutation to the IC50 value for cells with wildtype EGFR (EGFR E709K; Ba/F3 cells, EGFR E709K (PACC), Mut/WT): 0.2516
ratio of IC50 for cells with mutant EGFR to IC50 for cells with wildtype EGFR (Mut/WT) (EGFR L858R T790M L718V): 2.011

ratio of IC50 for cells with mutant EGFR to IC50 for cells with wildtype EGFR (Mut/WT) (EGFR L833V): 0.003152
ratio of IC50 for cells with mutant EGFR to IC50 for cells with wildtype EGFR (Mut/WT) (EGFR G719A L861Q; PACC, G719A L861Q, Ba/F3, 72 hours): 0.4976
ratio of IC50 for cells with mutant EGFR to IC50 for cells with wildtype EGFR (Mut/WT) (EGFR K754E): 0.00723
ratio of IC50 for cells with mutant EGFR to IC50 for cells with wildtype EGFR (Mut/WT) (EGFR Ex19del): 0.01427
ratio of IC50 for cells with mutant EGFR to IC50 for cells with wildtype EGFR (Mut/WT) (EGFR L858R T790M V843I): 70.97
ratio of IC50 for cells with mutant EGFR to IC50 for cells with wildtype EGFR (Mut/WT) (EGFR E709_T710del insD; PACC, E709_T710del insD, Ba/F3, 72 hours): 0.782
ratio of IC50 for cells with mutant EGFR to IC50 for cells with wildtype EGFR (Mut/WT) (EGFR L858R/L792H; PACC, L858R/L792H, Ba/F3, 72 hours): 0.346
ratio of IC50 for cells with mutant EGFR to IC50 for cells with wildtype EGFR (Mut/WT) (EGFR A763insLQEA): 0.0269
ratio of IC50 for cells with mutant EGFR to IC50 for cells with wildtype EGFR (Mut/WT) (EGFR G719S; PACC, G719S, Ba/F3, 72 hours): 0.002634
ratio of IC50 for cells with mutant EGFR to IC50 for cells with wildtype EGFR (Mut/WT) (EGFR L858R/C797S; PACC, L858R/C797S, Ba/F3, 72 hours): 0.7434
ratio of IC50 for cells with mutant EGFR to IC50 for cells with wildtype EGFR (Mut/WT) (EGFR D761N): 0.1319
ratio of IC50 for cells with mutant EGFR to IC50 for cells with wildtype EGFR (Mut/WT) (EGFR K757R; PACC, K757R, Ba/F3, 72 hours): 0.3019
ratio of IC50 for cells with mutant EGFR to IC50 for cells with wildtype EGFR (Mut/WT) (EGFR E709K G719S; PACC, E709K G719S, Ba/F3, 72 hours): 0.06517
ratio of IC50 for cells with mutant EGFR to IC50 for cells with wildtype EGFR (Mut/WT) (EGFR L718V; PACC, L718V, Ba/F3, 72 hours): 1.421
ratio of IC50 for cells with mutant EGFR to IC50 for cells with wildtype EGFR (Mut/WT) (EGFR G719A; PACC, G719A, Ba/F3, 72 hours): 0.01637
ratio of IC50 for cells with mutant EGFR to IC50 for cells with wildtype EGFR (Mut/WT) (EGFR L718Q; PACC, L718Q, Ba/F3, 72 hours): 0.06989
ratio of IC50 for cells with mutant EGFR to IC50 for cells with wildtype EGFR (Mut/WT) (EGFR L858R G724S; PACC, L858R G724S, Ba/F3, 72 hours): 0.02628
ratio of IC50 for cells with mutant EGFR to IC50 for cells with wildtype EGFR (Mut/WT) (EGFR G719A/R776C; PACC, G719A/R776C, Ba/F3, 72 hours): 0.03266
ratio of IC50 for cells with mutant EGFR to IC50 for cells with wildtype EGFR (Mut/WT) (EGFR Ex19del/L792H; PACC, Ex19del/L792H, Ba/F3, 72 hours): 1.041
ratio of IC50 for cells with mutant EGFR to IC50 for cells with wildtype EGFR (Mut/WT) (EGFR G724S T790M): 1.041
ratio of IC50 for cells with mutant EGFR to IC50 for cells with wildtype EGFR (Mut/WT) (EGFR S768dupSVD V769M): 0.33
ratio of IC50 for cells with mutant EGFR to IC50 for cells with wildtype EGFR (Mut/WT) (EGFR E709K; PACC, E709K, Ba/F3, 72 hours): 0.03467
ratio of IC50 for cells with mutant EGFR to IC50 for cells with wildtype EGFR (Mut/WT) (EGFR L858R T790M L718V): 151.6
Structure (SMILES): CN(C)C/C=C/C(=O)Nc1cc2c(Nc3ccc(Cl)c(Br)c3)ncnc2cn1 [Tarlox-TKI]
